# Patent EP4806904A1, “POLYPEPTIDE AND USE THEREOF” (Sichuan Gooddoctor Panxi Pharmaceutical Co. Ltd, priority 2023, dated 2026)
# Where a SMILES comes first, the peptide text is derived from it. Where no end group is shown, it is not given here. [ ]: non-standard residue; d: D form.
# Assays:
# [1] = test system: Brain microvascular endothelial cells (BMECs) and brain microvascular smooth muscle cells (BMVSMCs); test: In vitro angiogenesis assay, BMEC/BMVSMC co-culture on matrigel; format: cell-based, mouse; settings: 0.1 mg/L, 48 h
# Procedure: First, mouse brain microvascular pellets were obtained by differential centrifugation. Brain microvascular endothelial cells (BMECs) and brain microvascular smooth muscle cells (BMVSMCs) were isolated by digestion with collagenase II, respectively, and cultured in a cell incubator with 5% CO2 at 37°C . Cells at passages 3-6 in good growth condition and logarithmic growth phase were selected for the in vitro angiogenesis assay.
# One night before the experiment, the high-concentration matrigel was transferred from a -20°C or -80°C refrigerator to a 4°C refrigerator and allowed to thaw slowly overnight in the 4°C refrigerator. Pipette tips required for the formal experiment were sterilized in advance and pre-cooled in a 4°C refrigerator for subsequent use.
# On the day of the experiment, the matrigel was added to a 96-well plate 1 h in advance and placed in a 37°C cell incubator until it solidified. Subsequently, the cells were washed 2 times with 2 mL of PBS buffer, followed by digestion with 0.25% trypsin to obtain EC and VSMC pellets, respectively, and cell counting was performed. A uniform cell suspension containing 5×10^3 BMVSMCs and 1×10^3 BMECs per well was then seeded into the 96-well plate pre-coated with the matrigel, and cultured in a 37°C, 5% CO2 cell incubator for 3 days.
# During the culture period, tube formation was observed daily. The medium was changed on day 4, followed by treatment with the polypeptide of the invention at 0.1 mg/L or VEGFA at 10/15/20 ng/L for 48 h, respectively.
# On day 5, the cell nuclei and live cells were labeled with Hoechst 33342 and Calcein AM, respectively. High-content brightfield and fluorescence imaging were then performed using a high-content screening system. Finally, angiogenesis in each treatment group was analyzed using the Angiogenesis Analyzer plugin for ImageJ, and statistical analysis was carried out with GraphPad Prism 10.
# [2] = test system: primary neural stem cells (NSCs); test: Differentiation of primary neural stem cells, βIII-tubulin fluorescence and Neurite Outgrowth Assay; format: cell-based, SD rats; settings: 100 µg/mL, 4 days; for neurite outgrowth (total neurite length, maximum neurite length, neurite terminals, neurite initiation points): Neurite Outgrowth Assay; for neurite outgrowth (total neurite length, maximum neurite length, neurite terminals, neurite initiation points) / mean fluorescence intensity of the neuronal marker protein βIII-tubulin: in words; for Longest neurite length / Neurite initiation points (branches) / Total neurite length / Average fluorescence intensity / Number of neurite terminals: significance vs blank control group; for mean fluorescence intensity of the neuronal marker protein βIII-tubulin: vs blank control group; for Average fluorescence intensity: βIII-tubulin
# Procedure: This part of the experiment requires feeding male and female rats in advance, then extracting hippocampal neural stem cells from newborn SD rats within 24 h of birth, culturing them to P3 for identification, and then using them for experiments. • (1) Extraction and culture of primary neural stem cells (NSCs) • (2) NSCs that have been passaged to P3 and have good viability were seeded in differentiation medium (2% FBS+DMEM/F12 1:1 medium) in 48-well plates with a cell concentration of 5×10^4 cells/mL per well. After overnight culture for cell adherence, the cells were treated with drugs; • (3) Drug treatment was applied. The final concentration of the polypeptide of the invention was 100 µg/mL. Meanwhile, nerve growth factor (NGF, 50 ng/mL) was set as the positive control, and the cells were cultured in the incubator for another 4 days; • (4) Immunofluorescence staining (primary antibody βIII-tubulin) was performed after 4 days of treatment. The average fluorescence intensity of βIII-tubulin was analyzed and the Neurite Outgrowth Assay was performed using a high-content cell imaging analysis system.
# [3] = test system: neural stem cell line C17.2; test: Proliferation of neural stem cell line C17.2, BrdU, high-content imaging; format: cell-based; settings: 100 µg/mL, 48 h; for Proliferation-promoting results: percentage of BrdU-positive cells, significance vs blank control group; for number of BrdU positive cells: vs blank control group, in words
# Procedure: • (1) C17.2 cells were seeded in 96-well plates at a concentration of 1500 cells/100 µL/well. After overnight culture for cell adherence, the cells were treated with drugs; • (2) Drug treatment was applied. The final concentration of the polypeptide of the invention was 100 µg/mL. Meanwhile, butylphthalide (NBP, 5 µM) was set as the positive control. The cells were cultured in the incubator for another 48 h; • (3) BrdU was added at 44 h of treatment to a final concentration of 10 µM. Immunofluorescence staining was performed 4 h later, and the percentage of BrdU-positive cells was statistically analyzed using a high-content cell imaging analysis system.
# [4] = significance vs blank control group
Compound,"Branch length [1, 4]","Number of intersections [1, 4]","angiogenesis-promoting effects ([1]; vs normal group, in words)","neurite outgrowth (total neurite length, maximum neurite length, neurite terminals, neurite initiation points) [2]",Total neurite length [2],Proliferation-promoting results [3],"Cell count [1, 4]",number of BrdU positive cells [3],mean fluorescence intensity of the neuronal marker protein βIII-tubulin [2],other results
"CC(C)C[C@H](NC(=O)[C@@H](NC(=O)CNC(=O)[C@H]1CCCN1C(=O)[C@H](C)NC(=O)[C@@H]1CCCN1C(=O)[C@H](CC(C)C)NC(=O)[C@H](C)N)[C@@H](C)O)C(=O)O [Compound 6, H-Ala-Leu-Pro-Ala-D-Pro-Gly-Thr-Leu-OH] (H-ALPA[dP]GTL-OH)",* (*p < 0.05),** (**p < 0.01),exhibited angiogenesis-promoting effects,tendency to promote neurite outgrowth,* (*p < 0.05),* (*p < 0.05),,,,Longest neurite length [2]: * (*p < 0.05); Neurite initiation points (branches) [2]: * (*p < 0.05)
"H-ALPAPGAL-OH [Compound 18, H-Ala-Leu-Pro-Ala-Pro-Gly-Ala-Leu-OH]",* (*p < 0.05),* (*p < 0.05),exhibited angiogenesis-promoting effects,,,*** (***p < 0.001),* (*p < 0.05),,,
"H-LPAPGT-OH [Compound 32, H-Leu-Pro-Ala-Pro-Gly-Thr-OH]",* (*p < 0.05),,,,,* (*p < 0.05),** (**p < 0.01),significant increase,,
"CC(C)C[C@H](NC(=O)[C@H](NC(=O)CNC(=O)[C@@H]1CCCN1C(=O)[C@H](C)NC(=O)[C@@H]1CCCN1C(=O)[C@H](CC(C)C)NC(=O)[C@H](C)N)[C@H](C)O)C(=O)O [Compound 7, H-Ala-Leu-Pro-Ala-Pro-Gly-D-Thr-Leu-OH] (H-ALPAPG[dT]L-OH)",,,,tendency to promote neurite outgrowth,* (*p < 0.05),** (**p < 0.01),** (**p < 0.01),,,"cell proliferation ([1]; vs normal group, in words): only promoted cell proliferation; Longest neurite length [2]: * (*p < 0.05)"
"H-LAPAPGTL-OH [Compound 19, H-Leu-Ala-Pro-Ala-Pro-Gly-Thr-Leu-OH]",* (*p < 0.05),* (*p < 0.05),exhibited angiogenesis-promoting effects,,,** (**p < 0.01),,,,
"ALPAPG [Compound 40, H-Ala-Leu-Pro-Ala-Pro-Gly-Oh]",,,,,,* (*p < 0.05),* (*p < 0.05),significant increase,significant increase,"cell proliferation ([1]; vs normal group, in words): only promoted cell proliferation; Average fluorescence intensity [2]: * (*p < 0.05)"
"C[C@H](N)C(=O)N1CCC[C@H]1C(=O)NCC(=O)N[C@H](C(=O)O)[C@@H](C)O [Compound 37, H-Ala-Pro-Gly-Thr-OH] (H-APGT-OH)",,,,,,* (*p < 0.05),,significant increase,,
"H-ALPAAGTL-OH [Compound 17, H-Ala-Leu-Pro-Ala-Ala-Gly-Thr-Leu-OH]",,,,,,** (**p < 0.01),** (**p < 0.01),,tendency to enhance,"cell proliferation ([1]; vs normal group, in words): only promoted cell proliferation"
"CC(C)C[C@H](NC(=O)[C@H](C)N)C(=O)N1CCC[C@H]1C(=O)N[C@@H](C)C(=O)N1CCC[C@H]1C(=O)NCC(=O)N[C@H](C(=O)N[C@H](CC(C)C)C(=O)O)[C@@H](C)O [Compound 8, H-Ala-Leu-Pro-Ala-Pro-Gly-Thr-D-Leu-OH] (H-ALPAPGT[dL]-OH)",** (**p < 0.01),* (*p < 0.05),exhibited angiogenesis-promoting effects,,,* (*p < 0.05),,,,
"CC(C)C[C@H](NC(=O)[C@@H](NC(=O)CNC(=O)[C@@H]1CCCN1)[C@@H](C)O)C(=O)O [Compound 28, H-Pro-Gly-Thr-Leu-OH] (H-PGTL-OH)",,,,tendency to promote neurite outgrowth,** (**p < 0.01),* (*p < 0.05),,significant increase,,Number of neurite terminals [2]: * (*p < 0.05)
"H-ALPAPGTL-NH2 [Compound 10, H-Ala-Leu-Pro-Ala-Pro-Gly-Thr-Leu-NH2]",,,,tendency to promote neurite outgrowth,* (*p < 0.05),** (**p < 0.01),* (*p < 0.05),significant increase,tendency to enhance,"cell proliferation ([1]; vs normal group, in words): only promoted cell proliferation; Number of neurite terminals [2]: ** (**p < 0.01)"
"H-QLPAPGTLQHF-OH [Compound 25, H-Gln-Leu-Pro-Ala-Pro-Gly-Thr-Leu-Gln-His-Phe-OH]",,,,,,,** (**p < 0.01),,significant increase,"cell proliferation ([1]; vs normal group, in words): only promoted cell proliferation; Average fluorescence intensity [2]: * (*p < 0.05)"
"C[C@H](NC(=O)[C@@H]1CCCN1)C(=O)N1CCC[C@H]1C(=O)NCC(=O)O [Compound 36, H-Pro-Ala-Pro-Gly-OH] (H-PAPG-OH)",** (**p < 0.01),,,tendency to promote neurite outgrowth,* (*p < 0.05),** (**p < 0.01),** (**p < 0.01),significant increase,,"Branch length ([1]; vs normal group, in words): promoting effects; number of junctions ([1]; vs normal group, in words): no significant effects; Number of neurite terminals [2]: * (*p < 0.05)"
"H-ALPAGGTL-OH [Compound 15, H-Ala-Leu-Pro-Ala-Gly-Gly-Thr-Leu-OH]",,* (*p < 0.05),,tendency to promote neurite outgrowth,,* (*p < 0.05),,,,"Branch length ([1]; vs normal group, in words): no significant effects; number of junctions ([1]; vs normal group, in words): promoting effects; Longest neurite length [2]: * (*p < 0.05)"
"Ac-ALPAPGTL-NH2 [Compound 11, Ac-Ala-Leu-Pro-Ala-Pro-Gly-Thr-Leu-NH2]",* (*p < 0.05),* (*p < 0.05),exhibited angiogenesis-promoting effects,promote neurite outgrowth,*** (***p < 0.001),** (**p < 0.01),,significant increase,,Longest neurite length [2]: ** (**p < 0.01); Neurite initiation points (branches) [2]: *** (***p < 0.001); Number of neurite terminals [2]: ** (**p < 0.01)
"H-AAPAPGTL-OH [Compound 16, H-Ala-Ala-Pro-Ala-Pro-Gly-Thr-Leu-OH]",,,,,,* (*p < 0.05),,,significant increase,Average fluorescence intensity [2]: * (*p < 0.05)
"H-PAPGTL-OH [Compound 26, H-Pro-Ala-Pro-Gly-Thr-Leu-OH]",* (*p < 0.05),* (*p < 0.05),exhibited angiogenesis-promoting effects,,,,,,tendency to enhance,
